Assay results taken from the METLIN SMRT retention time set (Domingo-Almenara et al. 2019).

Assay: gradient 5% acetonitrile 3 min, to 50% in 2 min, to 85% in 15 min, held 3 min, 100 µL/min
Conditions: column: Zorbax Extend-C18 2.1 x 50 mm; eluents: water / acetonitrile, 0.1% formic acid
Method in brief: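 Values are retention times taken from adduct peaks that software picked and an analyst inspected. The pure standards were run as mixtures of ~100 molecules on HPLC linked to a quadrupole time-of-flight mass spectrometer, in positive and negative ionization mode. A Zorbax Extend-C18 column (2.1 × 50 mm, 1.8 μm) was used at 100 μL/min with water and acetonitrile, each including 0.1% formic acid.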

Row | RP-LC retention time [s] | Structure (SMILES)
1 | 773 | O=C(Cn1c(=O)n(-c2ccc(F)cc2)c2ncccc21)NC1CCCC1
2 | 1030 | Cc1nc(-c2cn(C(C)C)c3ncccc23)sc1C(=O)NCc1ccccc1F
3 | 582 | COc1ccc2ncc(C(=O)c3ccc(C)cc3)c(N3CCN(C)CC3)c2c1
4 | 766 | CCOC(=O)Cn1c(C2CC(=O)N(c3ccc(F)cc3)C2)nc2ccccc21 (stereo not given)
5 | 857 | CCCc1ccc(-c2cc(C(=O)N3CCN(c4ccccn4)CC3)c3ccccc3n2)cc1
6 | 913 | O=C(CN1c2ccc(F)cc2-c2ccccc2S1(=O)=O)NCc1ccc2c(c1)OCO2
7 | 780 | Cc1ccc(CNC(=O)C2(C)Cn3cnc(C(=O)NCc4ccccc4F)c3C(=O)N2C2CC2)cc1 (stereo not given)
8 | 806 | O=c1n(Cc2ccc(F)cc2)nc2c(S(=O)(=O)N3CCCC3)cccn12
9 | 875 | CCOC(=O)c1ccccc1NC(=O)Cn1nc2cc(-c3ccccn3)nc(C)n2c1=O
10 | 821 | CCOC(=O)c1cn(CC(=O)Nc2ccc(Br)cc2)c2nc(C)ccc2c1=O
11 | 1080 | CCOc1ccc(NC(=O)c2cc(S(=O)(=O)N3CCCC(C)C3)cn2C)cc1 (stereo not given)
12 | 610 | COc1cccc(NC(=O)CN2CCc3[nH]c4c(OC)ccc(Cl)c4c(=O)c3C2)c1
13 | 919 | CCCCS(=O)(=O)c1cc2c(cc1NC(=O)Cc1ccc(Cl)cc1)n(C)c(=O)n2C
14 | 885 | Cc1ccc2c(c1)C(c1ccc(F)cc1)N(C(=O)c1ccc(S(=O)(=O)N(C)C)cc1)CC(=O)N2 (stereo not given)
15 | 896 | Cc1nc(-c2noc(-c3ccc(F)cc3)n2)cn1CC(=O)NCc1ccc(Cl)cc1
16 | 571 | CCN(CC)CCNC(=O)C1(O)c2ccccc2NC(=O)N1c1ccc(C)c(C)c1 (stereo not given)
17 | 1230 | Cc1ccc(S(=O)(=O)N2CCCC2c2nc(-c3ccc(Cl)cc3)no2)cc1F (stereo not given)

More lines, now with the values behind:

Row | Structure (SMILES) | RP-LC retention time [s]
18 | Cn1c(=O)c2cc(C(=O)N3CCN(C(=O)c4ccco4)CC3)sc2n(C)c1=O | 574
19 | O=C(Nc1cnc(N2CCCCCC2)nc1)c1cnccn1 | 771
20 | O=C(NCC(O)C1CCCCC1)c1cccc2ccccc12 (stereo not given) | 802
21 | CCOc1ccccc1CNC(=O)c1c(C)sc2ccn(C)c(=O)c12 | 823
22 | O=C(Nc1ccc2c(c1)CN(C(=O)c1ccco1)CC2)c1cnccn1 | 662
23 | COc1cc(NC(=O)COc2cc(C)nc(N3CCN(c4ccccc4)CC3)n2)cc(OC)c1OC | 764
24 | CN(C)CCc1c[nH]c2ccc(CS(=O)(=O)N3CCCC3)cc12 | 629
25 | CC(C)Cn1c(=O)c2ccccc2n(Cc2nc(-c3cccc(Cl)c3)no2)c1=O | 1250
26 | Cc1ccc(N2CCN(C(=O)C3CCCN(c4nccc5sc(C)cc45)C3)CC2)cc1 (stereo not given) | 747
27 | Cc1cc(C)cc(Nc2c(C(=O)N3CCC(C)CC3)cnc3nc(C)ccc23)c1 | 693
28 | CCOc1ccc(CCNC(=O)C2CCCN(c3nnc(C)c4c(C)n(-c5ccccc5)nc34)C2)cc1 (stereo not given) | 759
29 | O=C(NC1CCCCCC1)c1nnn(Cc2ccccc2)c1-n1cccc1 | 1120
30 | O=C(CCn1nnc2cc(-c3noc(-c4ccc(Br)o4)n3)ccc21)N1CCOCC1 | 822
31 | COCCCNC(=O)c1ccc(Oc2nccnc2N2CCC(C)CC2)cc1 | 956
32 | Cc1ccc(-c2cc3c(=O)n(Cc4noc(CN5CCOCC5)n4)ccn3n2)cc1 | 733
33 | COc1ccccc1NC(=O)[C@H]1[C@H]2C=C[C@]3(CN(Cc4cccnc4)C(=O)[C@@H]13)O2 | 597
34 | O=C(NC1CC1)C1CCc2sc(C(=O)N3CCCCC3)cc2C1 (stereo not given) | 711
35 | N#Cc1ccc(-c2nc(-c3ccc4c(c3)ncn4CCN3CCOCC3)no2)cc1 | 624
